Measurements published in patent publication US8980829B2, “Aryl glycoside compound, preparation method and use thereof” (Shanghai Yingli Science and Technology Co., Ltd, priority 2011, dated 2015).

Tests used:
human SGLT2 = human SGLT2 (Homo sapiens (Human), UniProt P31639); assay: Uptake assay of [14C]-AMG in Flp-In CHO cells stably expressing human SGLT2; type: cell-based; settings: for IC50: [14C]-AMG uptake, Flp-In CHO cells expressing human SGLT2, 1 hour at 37° C., n = 1-4; for Selectivity (SGLT1/SGLT2): ratio SGLT1 IC50 / SGLT2 IC50;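 for all read-outs here: uptake in Na+ containing KRH buffer with compounds added in 1% DMSO, radioactivity of lysed cells read by scintillation counting, SGLT1 tested the same way in matching Flp-In CHO cells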
human SGLT1 = human SGLT1 (Homo sapiens (Human), UniProt P13866); assay: Uptake assay of [14C]-AMG in Flp-In CHO cells stably expressing human SGLT1; type: cell-based; settings: [14C]-AMG uptake, Flp-In CHO cells expressing human SGLT1, 1 hour at 37° C., n = 1-4;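 note: uptake run in sodium-containing KRH buffer with compounds added in DMSO (1% final), cell radioactivity read by scintillation counting after lysis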
C57 mice = assay: Urinary glucose excretion test; type: in vivo; settings: adult C57 mice, 10 mg/kg, 24-hours urine collection, average of 6 mice
Procedure: Urinary Glucose Excretion Test
Adult C57 mice administered the test compound (10 mg/kg) were placed in metabolism cages for 24-hours urine collection, and measure the total volume of urine. When the urine samples had been collected, they were immediately frozen in a −20° C. refrigerator, followed by detecting the glucose concentration in urine. Finally, the total glucose in animal urine was calculated according to the total urine volume. It was then converted into urinary glucose excretion (mg) per 200 g of body weight within 24 hours according to the weight of mice.

human SGLT1, sequence (P13866 whole entry): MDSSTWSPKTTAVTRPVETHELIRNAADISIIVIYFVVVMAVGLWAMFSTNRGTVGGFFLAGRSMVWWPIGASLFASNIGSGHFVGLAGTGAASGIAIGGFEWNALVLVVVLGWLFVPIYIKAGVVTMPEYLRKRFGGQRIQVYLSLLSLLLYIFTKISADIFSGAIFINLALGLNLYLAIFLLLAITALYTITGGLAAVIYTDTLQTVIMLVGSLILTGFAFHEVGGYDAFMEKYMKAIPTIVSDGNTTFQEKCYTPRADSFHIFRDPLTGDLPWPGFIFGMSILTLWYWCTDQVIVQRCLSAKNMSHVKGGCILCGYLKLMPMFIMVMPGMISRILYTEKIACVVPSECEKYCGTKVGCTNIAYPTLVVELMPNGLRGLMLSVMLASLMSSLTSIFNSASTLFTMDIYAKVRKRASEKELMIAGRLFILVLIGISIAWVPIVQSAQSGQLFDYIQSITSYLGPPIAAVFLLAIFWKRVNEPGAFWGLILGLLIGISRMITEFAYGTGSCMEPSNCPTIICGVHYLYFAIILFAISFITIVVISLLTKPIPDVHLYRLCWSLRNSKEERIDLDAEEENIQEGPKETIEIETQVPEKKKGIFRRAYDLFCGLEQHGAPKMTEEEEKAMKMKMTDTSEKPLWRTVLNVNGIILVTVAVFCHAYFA
human SGLT2, sequence (P31639 whole entry): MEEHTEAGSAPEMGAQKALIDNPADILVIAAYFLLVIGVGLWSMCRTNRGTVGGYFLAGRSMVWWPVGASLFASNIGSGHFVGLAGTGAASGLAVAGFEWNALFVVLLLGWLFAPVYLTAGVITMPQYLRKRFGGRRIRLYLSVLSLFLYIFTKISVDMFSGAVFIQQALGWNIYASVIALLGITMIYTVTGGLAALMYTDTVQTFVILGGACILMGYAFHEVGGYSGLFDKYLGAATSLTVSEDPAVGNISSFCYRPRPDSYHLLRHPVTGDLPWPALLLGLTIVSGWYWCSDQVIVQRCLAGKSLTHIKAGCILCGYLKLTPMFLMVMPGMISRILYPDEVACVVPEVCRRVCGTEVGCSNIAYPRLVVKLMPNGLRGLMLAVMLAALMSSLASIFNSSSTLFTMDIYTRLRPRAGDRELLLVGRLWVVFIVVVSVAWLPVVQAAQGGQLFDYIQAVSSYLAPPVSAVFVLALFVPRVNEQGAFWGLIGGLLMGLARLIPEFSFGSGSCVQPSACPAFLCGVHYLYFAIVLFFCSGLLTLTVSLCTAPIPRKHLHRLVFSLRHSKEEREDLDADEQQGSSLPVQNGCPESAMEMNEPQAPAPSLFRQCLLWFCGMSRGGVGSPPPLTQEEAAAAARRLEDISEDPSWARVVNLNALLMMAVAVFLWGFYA

| IC50 (human SGLT2) [nM] | Selectivity (SGLT1/SGLT2) (human SGLT2) | IC50 (human SGLT1) [nM] | SMILES | Urine Glucose Excretion (mg/200 g BW/24 h) (C57 mice) |
| --- | --- | --- | --- | --- |
| 97.2 | 21 | 1990 | OC[C@H]1O[C@@H](c2ccc(Cl)c(Cc3ccc(OCC4CN(c5ccc(F)cc5)C4)cc3)c2)[C@H](O)[C@@H](O)[C@@H]1O [Compound 19] |  |
| 8.4 | 93 | 785 | OC[C@H]1O[C@@H](c2ccc(Cl)c(Cc3ccc(OCC4CNC4)cc3)c2)[C@H](O)[C@@H](O)[C@@H]1O [Compound 14] |  |
| 22 | 111 | 2450 | OC[C@H]1O[C@@H](c2ccc(Cl)c(Cc3ccc(OCC4CN(C5COC5)C4)cc3)c2)[C@H](O)[C@@H](O)[C@@H]1O [Compound 18] |  |
| 8.3 | 95 | 792 | CC1(COc2ccc(Cc3cc([C@@H]4O[C@H](CO)[C@@H](O)[C@H](O)[C@H]4O)ccc3Cl)cc2)COC1 [Compound 5] | 1050 |
| 8.1 | 306 | 2480 | OC[C@H]1O[C@@H](c2ccc(Cl)c(Cc3ccc(CC4(F)COC4)cc3)c2)[C@H](O)[C@@H](O)[C@@H]1O [Compound 16] | 1441 |
| 1.7 | 547 | 930 | OC[C@H]1O[C@@H](c2ccc(Cl)c(Cc3ccc(OCCC4COC4)cc3)c2)[C@H](O)[C@@H](O)[C@@H]1O [Compound 8] |  |
| 9.6 | 312 | 3000 | OC[C@H]1O[C@@H](c2ccc(Cl)c(Cc3ccc(CC4COC4)cc3)c2)[C@H](O)[C@@H](O)[C@@H]1O [Compound 6] | 735 |
| 6.8 | 150 | 1020 | [O-][S+]1CC(CCOc2ccc(Cc3cc([C@@H]4O[C@H](CO)[C@@H](O)[C@H](O)[C@H]4O)ccc3Cl)cc2)C1 (some centres unmarked) [Compound 11] |  |
| 23.6 | 62 | 1460 | CN1CC(COc2ccc(Cc3cc([C@@H]4O[C@H](CO)[C@@H](O)[C@H](O)[C@H]4O)ccc3Cl)cc2)C1 [Compound 15] |  |
| 6.4 | 73 | 469 | CC(=O)N1CC(COc2ccc(Cc3cc([C@@H]4O[C@H](CO)[C@@H](O)[C@H](O)[C@H]4O)ccc3Cl)cc2)C1 [Compound 17] | 180 |
| 7.4 | 176 | 1300 | OC[C@H]1O[C@@H](c2ccc(Cl)c(Cc3ccc(OCCC4CSC4)cc3)c2)[C@H](O)[C@@H](O)[C@@H]1O [Compound 10] | 740 |
| 7.5 | 159 | 1190 | OC[C@H]1O[C@@H](c2ccc(Cl)c(Cc3ccc(OCCC4(F)COC4)cc3)c2)[C@H](O)[C@@H](O)[C@@H]1O [Compound 9] | 1079 |
| 5.6 | 471 | 2640 | OC[C@H]1O[C@@H](c2ccc(Cl)c(Cc3ccc(OCC4COC4)cc3)c2)[C@H](O)[C@@H](O)[C@@H]1O [Compound 1] | 1333 |
| 1.7 | 2911 | 4950 | OC[C@H]1O[C@@H](c2ccc(Cl)c(Cc3ccc(OCCCC4COC4)cc3)c2)[C@H](O)[C@@H](O)[C@@H]1O [Compound 22] |  |
| 28.7 | 96 | 2760 | CC(C)(C)OC(=O)N1CC(COc2ccc(Cc3cc([C@@H]4O[C@H](CO)[C@@H](O)[C@H](O)[C@H]4O)ccc3Cl)cc2)C1 [Compound 13] |  |
| 6.5 | 320 | 2080 | OC[C@H]1O[C@@H](c2ccc(Cl)c(Cc3ccc(OCC4(F)COC4)cc3)c2)[C@H](O)[C@@H](O)[C@@H]1O [Compound 12] | 1323 |
| 8.5 | 124 | 1060 | OC[C@H]1O[C@@H](c2ccc(Cl)c(Cc3ccc(CCC4COC4)cc3)c2)[C@H](O)[C@@H](O)[C@@H]1O [Compound 7] |  |
|  |  |  | OC[C@H]1O[C@@H](c2ccc(Cl)c(Cc3ccc(OC4CCOC4)cc3)c2)[C@H](O)[C@@H](O)[C@@H]1O (some centres unmarked) [EMPAGLIFLOZIN, reference compound] | 1197 |

| SMILES | IC50 (human SGLT2) [nM] | Selectivity (SGLT1/SGLT2) (human SGLT2) | IC50 (human SGLT1) [nM] | Urine Glucose Excretion (mg/200 g BW/24 h) (C57 mice) |
| --- | --- | --- | --- | --- |
| OC[C@H]1O[C@@H](c2ccc(Cl)c(Cc3ccc(OCCCC4(F)COC4)cc3)c2)[C@H](O)[C@@H](O)[C@@H]1O [Compound 23] | 1.1 | 1089 | 1200 | 1198 |
| CCOc1ccc(Cc2cc([C@@H]3O[C@H](CO)[C@@H](O)[C@H](O)[C@H]3O)c(OCC3CNC3)cc2Cl)cc1 [Compound 26] | 69.4 | 28 | 1950 |  |
| OC[C@H]1O[C@@H](c2ccc(Cl)c(Cc3ccc(OCC4CCO4)cc3)c2)[C@H](O)[C@@H](O)[C@@H]1O (single isomer, unassigned) [Compound 4] | 4.9 | 295 | 1450 |  |
| OC[C@H]1O[C@@H](c2ccc(Cl)c(Cc3ccc(OCC4CCO4)cc3)c2)[C@H](O)[C@@H](O)[C@@H]1O (single isomer, unassigned) [Compound 2] | 8.7 | 188 | 1640 |  |
| OC[C@H]1O[C@@H](c2ccc(Cl)c(Cc3ccc(OCC4(CF)COC4)cc3)c2)[C@H](O)[C@@H](O)[C@@H]1O [Compound 20] | 3.7 | 690 | 2550 | 751 |
| CCOc1ccc(Cc2cc([C@@H]3O[C@H](CO)[C@@H](O)[C@H](O)[C@H]3O)c(OCCCC3(F)COC3)cc2Cl)cc1 [Compound 25] | 12.3 | 1559 | 18800 |  |
| OC[C@H]1O[C@@H](c2ccc(Cl)c(Cc3ccc(OCC4CCO4)cc3)c2)[C@H](O)[C@@H](O)[C@@H]1O (single isomer, unassigned) [Compound 3] | 11.4 | 201 | 2290 |  |
| CCOc1ccc(Cc2cc([C@@H]3O[C@H](CO)[C@@H](O)[C@H](O)[C@H]3O)c(OCC3(F)COC3)cc2Cl)cc1 [Compound 24] | 12 | 1424 | 17100 |  |
